A short description of the experiment: In vitro inhibitory activity against neuraminidase. Also on record: species or system unidentified influenza virus.

On to `CC(=O)Nc1c(N)cc(C(=O)O)cc1O`, for which the IC50 (commonly the concentration that inhibits the measured activity by half) is above 10 µM.
For the compound `CC(=O)Nc1ccc(C(=O)O)cc1N`, the IC50 was above 10 µM.
For `CC(=O)N[C@H]1[C@H]([C@H](O)[C@H](O)CN)OC(C(=O)O)=C[C@@H]1O`, the Ki (in general, a measure of affinity in units of concentration, obtained from inhibition or displacement) was found to be 400 µM.
For the compound `CC(=O)N[C@H]1[C@H]([C@H](O)[C@H](O)CN)OC(C(=O)O)=C[C@@H]1N`, the Ki came out at 15 µM.
On to `CC(=O)Nc1c(O)cc(C(=O)O)cc1[N+](=O)[O-]`, for which the midpoint of inhibition, the IC50, lay at 750 µM.
With `CC(=O)N[C@H]1[C@H]([C@H](O)[C@H](O)CO)OC(C(=O)O)=C[C@@H]1N`, the Ki stood at 0.04 µM.
Consider `CCCN(CCc1ccccc1)C(=O)[C@@H]1OC(C(=O)O)=C[C@H](N)[C@H]1NC(C)=O`, for which the concentration for half-maximal inhibition (IC50) came to 3.6 µM.
In the case of `CC(=O)N[C@H]1[C@H]([C@H](O)[C@H](O)CO)OC(C(=O)O)=C[C@@H]1O` [NEU5AC2EN], the Ki stood at 4 µM.

Values taken from ChEMBL document CHEMBL1145125, “Simple, intuitive calculations of free energy of binding for protein-ligand complexes. 2. Computational titration and pH effects in molecular models of neuraminidase-inhibitor complexes” (J Med Chem, 2003).
